From patent publication US20100184810A1, “METHODS AND COMPOSITIONS RELATED TO RIBOSWITCHES THAT CONTROL ALTERNATIVE SPLICING” (Yale University, priority 2007, published 2010)
pKd: −log10 of the molar value. Like-named read-outs stand apart in the source and are kept apart here.

Tests used:
NMT1 riboswitch aptamer = experiment: In-line probing of NMT1 RNA constructs (TPP binding); parameters: species or system N. crassa
Experimental: In-line probing of RNA constructs. 5′ 32P-labeled RNAs were incubated at 23° C. for 40 hours in 50 mM Tris-HCl (pH 8.3 at 25° C.), 20 mM MgCl2 and 100 mM KCl in the presence or absence of TPP as defined. Cleavage products were separated by denaturing 10% PAGE, visualized by PhosphorImager (GE Healthcare), and quantified using ImageQuant software. KD values were determined by plotting the normalized fraction of RNA cleaved versus the logarithm of ligand concentration used. […] The results for in-line probing of 197 NMT1 and 115 NMT1 are depicted in FIG. 8 and FIG. 9, the results for 261 NMT1 are depicted in FIG. 10 and the results for 273 NMT1 are depicted in FIG. 11. Alternative base pairing similar to that being examined in the 273 NMT1 construct is observed in other fungal TPP riboswitches located in NMT1 mRNAs (FIG. 12).

NMT1 precursor mRNA = system: NMT1 precursor mRNA
Experimental: (§1) RNA Analyses. RT-PCR analyses were conducted using RNA from untransformed N. crassa inoculated into 100 ml of Vogel's minimal medium supplemented with 0.5 mg ml-1 L-histidine. Cultures were grown at 30° C. with shaking at 150 rpm for 24 h either in the absence or presence of supplemented 30 μM thiamine. The cDNA was used as a template for PCR amplification of the 5′ regions of the three genes using primers and methods as described in Supplementary Information. All splicing products were confirmed by cloning and sequencing.
(§2) Reverse transcriptase-polymerase chain reaction (RT-PCR) analyses. Total RNA was isolated from mycelia using TRIzol® LS reagent (Invitrogen) according to the manufacturer's directions. 5 μg of total RNA was treated with RNase free DNase I (Promega) for 30 min at 37° C. cDNA was generated by reverse transcription with a polyT primer for 1 hr at 42° C. using SuperScript™ II Reverse Transcriptase (Invitrogen) according to the manufacturer's directions. To exclude the possibility of amplification products originating from contamination with genomic DNA, control reactions using RNA preparations before RT were performed and, for NMT1, a reverse primer spanning an exon-exon border in the coding region was used.
as §2, with “used. […] For sequence identification all amplification products were cloned and confirmed by sequencing several independent clones.” for “used.”
(§3) A specific primer combination was used for every gene with one primer binding to the annotated 5′ end of the transcript and a second primer binding immediately downstream of the riboswitch-containing intron. For the NMT1 gene, the primers used for PCR were DNA37 and DNA38 (FIG. 14), corresponding to the annotated 5′ end of the NMT1 mRNA and a region approximately 50 nucleotides downstream of the TPP riboswitch-containing intron, respectively. For the THI4 (CyPBP37) gene, the primers used were DNA39 and DNA40, corresponding to the 5′ end of the mRNA and a region approximately 125 nucleotides downstream of the TPP riboswitch-containing intron, respectively.

THI4 precursor mRNA = conditions: 30 μM thiamine in growth medium, 24 h
Experimental: as §1, §2
as §2, with “used. […] For sequence identification all amplification products were cloned and confirmed by sequencing several independent clones.” for “used.”
as §3

[1] = system: FREQUENCY (FRQ) transcripts; conditions: 30 μM thiamine in minimal medium
Experimental: as §2
Reverse transcriptase-polymerase chain reaction (RT-PCR) analyses. Total RNA was isolated from mycelia using TRIzol® LS reagent (Invitrogen) according to the manufacturer's directions. 5 μg of total RNA was treated with RNase free DNase I (Promega) for 30 min at 37° C. cDNA was generated by reverse transcription with a polyT primer for 1 hr at 42° C. using SuperScript™ II Reverse Transcriptase (Invitrogen) according to the manufacturer's directions. […]

[2] = system: TPP riboswitch in the N. crassa NCU01977.1 mRNA; conditions: 30 μM thiamine, 24 h
Experimental: LUC activity was normalized to the value measured at t=0 h.
Luciferase reporter gene assays. Mycelia from N. crassa transformed with LUC reporter constructs were isolated by filtration and approximately 100 mg of tissue was ground to a fine powder. After addition of 100 gl 1× Passive Lysis Buffer (Promega), the samples were vigorously mixed and incubated on ice for 30 min followed by centrifugation for 15 minutes at 13,000 g. Luciferase activity was determined for the resulting supernatant using the Luciferase Assay System (Promega) and a plate-reading luminometer (Wallac). Luciferase activity was normalized over total protein concentration of the extract as determined by Bradford Protein Assay (BioRad) and finally expressed relative to a reference construct.
(§4) Luciferase reporter gene assays. Mycelia from N. crassa transformed with LUC reporter constructs were isolated by filtration and approximately 100 mg of tissue was ground to a fine powder. […] Luciferase activity was determined for the resulting supernatant using the Luciferase Assay System (Promega) and a plate-reading luminometer (Wallac). Luciferase activity was normalized over total protein concentration of the extract as determined by Bradford Protein Assay (BioRad) and finally expressed relative to a reference construct.

[3] = system: thiA mRNA carrying a TPP aptamer; conditions: thiamine supplementation of growth medium; cited from earlier work
[4] = 30 μM thiamine added at t=0 to culture grown in thiamine-free medium

Experimental for NMT1 TPP riboswitch: Reporter Gene Assays. Transformation of N. crassa was conducted using electroporation of freshly suspended macroconidia and insertion of the target gene was verified by PCR with insert specific primers from genomic DNA. Transcription of luciferase reporter constructs was constitutively driven by the N. crassa beta-tubulin (BTUB) promoter inserted upstream of the NMT1 5′ UTR. […] Samples were isolated and assayed for luciferase activity as described below.
as §4
Luciferase reporter gene assays. […] Luciferase activity was determined for the resulting supernatant using the Luciferase Assay System (Promega) and a plate-reading luminometer (Wallac). Luciferase activity was normalized over total protein concentration of the extract as determined by Bradford Protein Assay (BioRad) and finally expressed relative to a reference construct.

Structure (SMILES) | pKd (NMT1 riboswitch aptamer; both constructs (197 NMT1 and 115 NMT1), in-line probing, 23° C., 40 hours, 20 mM MgCl2, read-out: apparent dissociation constant (KD)) | structural modulation of nucleotides at the branch site (NMT1 riboswitch aptamer; in-line probing of 261 NMT1 RNA, 10 μM TPP) | structural modulation at the second 5′ splice site (NMT1 riboswitch aptamer; in-line probing of 273 NMT1 RNA, 10 μM TPP) | NMT1 transcript types within four hours after thiamine supplementation (NMT1 precursor mRNA; [4]) | NMT1 transcript types within the first hour after thiamine supplementation (NMT1 precursor mRNA; [4]) | effect on splicing of NMT1 precursor mRNA (NMT1 precursor mRNA; 30 μM thiamine in growth medium, 24 h) | effect on splicing of THI4 precursor mRNA (THI4 precursor mRNA) | effect on splicing of an RNA that does not carry the TPP riboswitch (FRQ) [1] | effect on splicing of an RNA that does not carry the TPP riboswitch (FRQ) ([1]; listed as Thiamine) | LUC expression, constructs I-2R and I-3R (TPP riboswitch absent) (NMT1 TPP riboswitch; 30 μM thiamine in the medium) | LUC reporter expression, wild-type (WT) NMT1 construct (NMT1 TPP riboswitch; grown overnight in medium supplemented with 30 μM thiamine) | LUC expression, NCU01977.1 reporter fusion construct [2] | thiA gene expression [3]
Cc1ncc(C[n+]2csc(CCO[P@](=O)(O)OP(=O)(O)O)c2C)c(N)n1 [TPP, thiamine pyrophosphate] | ~9.52 | more structured | more flexible structure | – | – | – | – | – | – | – | – | – | –
Cc1ncc(C[n+]2csc(CCO)c2C)c(N)n1 [thiamine] | – | – | – | I-3 is almost completely replaced by I-2 and I-1 | the splicing product I-2 and the unspliced NMT1 precursor RNA I-1 appear | causes alternative splicing | causes alternative splicing | do not change in number relative to each other | does not affect splicing | unchanged | Substantial repression | an increase in LUC expression | reduced gene expression
